Assay results: US20230302033A1, “FORMULATIONS OF NICOTINIC ACID DERIVATIVES AND FLAVONOID POLYPHENOLS AND USES THEREOF” (Animal Biosciences, Inc., priority 2021, published 2023)
Entries after “also recorded” stand apart in the source; their conditions may differ.

Assays:
purpose-bred beagles = experiment: Tolerability of orally administered NaR, single dose escalation and 7-day repeat dosing; format: in vivo
Experimental: The tolerability of NaR administered orally was determined in a two-phase laboratory study in purpose-bred beagles (male and female, 6.3-9.2 kg, 6 months old at the start of the study). The first phase of the study included single dose escalations of 100, 300, 1000 and 2000 mg/kg (n=4 per group). The second phase tested repeat dosing consisting of daily dosing over seven days of 100, 300 and 1000 mg/kg (n=6 per group). Administration occurred via oral gavage with an 18 French catheter into the stomach. The animals were assigned to groups by a stratified randomization scheme designed to achieve similar group mean body weights. Males and females were randomized separately.

NAD+ = experiment: Treated whole blood NAD+ pharmacokinetics after 7-day oral NaR (Examples 1 and 4); format: in vivo, Canis familaris (dog)/Beagle
Experimental: (§1) The appropriate number of NaR capsules were administered once daily to non-naïve male beagle dogs. Capsules were followed by at least 5 mL of tap water to ensure complete delivery. Animals were fed approximately 2 hours prior to dosing, with food removed approximately 2 hours post-dose. Samples for bioanalysis were collected during the pre-dose period (Day −7; based on Time Zero of 9 am) at 0, 0.25, 0.5, 1, 2, 4, 6, 8, 12, and 24 hours post-Time Zero. Samples were collected on Day 1 and 7 at 0, 0.25, 0.5, 1, 2, 4, 6, 8, 12, and 24 hours post dose, and on Days 3-5 at 2 hours post dose. Samples were analyzed for NAD+ using a bioassay.
A non-compartmental Pharmacokinetic (PK) approach consistent with oral route of administration was used to estimate PK parameters in Watson LIMS (version 7.5). All parameters were generated from individual concentrations in treated whole blood whenever practical. Mean values for each dose group were also reported. All concentration values were in ng/mL, and all time points were in hours. Nominal dose concentrations and sampling times were used. The observed maximum treated whole blood concentration (Cmax), time of Cmax (Tmax), and AUC (area under the concentration vs. time curve) were determined directly from the data during the entire 24 hour time interval post dosing. The dose levels were either 10, 20, or 30 mg/kg/day (Groups 1, 2, and 3, respectively). PK samples were collected on days −7 predose, 1 and 7 post dose, of a seven day once daily study. Samples on days 3, 4, and 5 postdose, at only one timepoint were collected but not included in PK parameter estimation.
Whenever possible, standard deviation and coefficient of variation determined by Watson LIMS were used. For analyses that were not supported by Watson, i.e. custom comparisons, Excel was used, and the statistics were reported as determined by Excel algorithms.

NAD = experiment: Bioavailability and pharmacokinetics of NaR and fisetin: whole blood NAD (Example 6, Studies #1 and #2); format: in vivo, Canis familaris (dog)/Beagle
Experimental: A series of pharmacokinetic studies were conducted to evaluate the bioavailability of a series of dosages and dosing regimens as measured in whole blood in non-fasted, adult Beagle dogs. NaR, NMN, Fisetin, individually and combination dosing (NaR-Fisetin and NMN-Fisetin) were tested.
Tables 1 and 2 show the dosing regimens of Study #1 conducted over 7 days and Study #2 conducted over 28 days, respectively. In Study #1, three dosage combinations were tested (Groups 1-3). An additional group (Group 4) was included to test the effects of fasting on the whole blood concentration of NAD. In Study #2, the effects of each compound individually and in combination were evaluated (Groups 1-3). Study #2 contained another test group (Group 4), which was included to compare the effects of NMN vs NaR in combination with Fisetin by Day 7 to determine if the effects seen on NAD concentration were unique to NaR vs. NAD booster, in general. Baseline NAD concentrations sampled over 24 hours on day −7 served as controls for endogenous NAD concentrations.
Two mL blood samples were collected at each time point using K2EDTA as an anticoagulant from all animals in each dose group. A sample was obtained prior to dosing (Day −7 pre-dose). On Day −7, groups 1-3 had 1 sample collected prior to feeding, and at times 0, 0.25, 0.5, 1, 2, 4, 6, 8, 12, and 24 hours post-Time Zero. On Day 2, groups 1-3 had 1 sample collected prior to feeding (˜2 hr prior to Time Zero) and at times 0, 0.25, 0.5, 1, 2, 4, 6, 8, 12, and 24 hours post-dose. On Days 3-5, samples were collected 2 hours post-dose, and on Day 7 samples were collected prior to feeding Groups 1-3 (˜2 hours prior to Time Zero) from all animals, and at time points 0.25, 0.5, 1, 2, 4, 6, 8, 12, and 24 hours post-dose.
For Group 2, on Day 21, post-dosing, and on Day 35, one sample was collected prior to feeding, and at times 0, 0.25, 0.5, 1, 2, 4, 6, 8, 12, and 24 hours post-Time Zero. The samples were processed for NAD+.
Two mL blood samples were collected at each time point using K2EDTA as an anticoagulant from all animals in each dose group. On Day 0 each group had 1 sample collected at times 0, 0.5, 1, 2, 4, 8, and 12 hours post-Time Zero. On Days 1, 2, 3, and 7, each group had 1 sample collected at times 0, 0.5, 1, 2, 4, 8, and 12 hours post-dose. On Days 14, 21, and 28 Groups 1-3 had samples taken at 0, 0.5, 1, 2, and 12 hours post-dose.
Immediately after collection, the sample tubes were inverted multiple times to ensure homogenization, then placed in an ice water bath until analysis. All samples were processed for NAD+ analysis and Fisetin analysis.
The bioanalytical data was used in the generation of a pharmacokinetic data using parameters calculated for each individual animal for Days 2 and 7, including: Tmax, Cmax, AUC0-24 and T½, as described in the previous examples, and the effect of repeat dosing on exposure was assessed by statistical analyses, e.g., mean and standard deviation for numerical parameters.

male Beagle dogs = experiment: Seven day repeat dose tolerability study of NaR; format: in vivo, Canis familaris (dog)/Beagle; conditions: oral capsule, 10, 20 and 30 mg/kg/day for seven days
Experimental: The objective of this study was to evaluate the tolerability and pharmacokinetic profile following 7-days of repeat dose administration of NaR.
NaR is provided as 100 mg capsule, size 4, stored at 18-26° C., and fisetin is provided as 100 mg capsule, size 0, stored at 18-26° C. Canis familaris (dog)/Beagle—nine non-naïve males, age 1-3 years, weight 7-11 kg.
as §1

[1] = test system: mature purpose-bred beagles and mongrels; experiment: Activity and safety of orally administered NaR, 28-day placebo-controlled study; format: in vivo
Text: A double blinded, placebo-controlled, non-randomized laboratory study to assess activity and safety was completed in 15 mature purpose-bred beagles and mongrels over a period of 28 days. The four males and 11 females ranged in age from 4-11 years, with a mean of 7.75 years. Body weights for beagles (n=12) were 9.5-15 kg and for mongrels (n=3) 24-40 kg. The animals were fitted with activity collars and housed in a room that allowed free movement for ˜ nine hours per day. They received three enrichment periods of 15 minutes per day consisting of interaction with caretakers. The activity of the animals was tracked 24 hours per day using actigraphy (accelerometers attached to the animal's collar) and force plate analysis for assessing changes to gait. A modified canine cognitive dysfunction rating (CCDR) (Madari et al., “Assessment of Severity and Progression of Canine Cognitive Dysfunction Syndrome Using the Canine Dementia Scale (CADES),” Applied Animal Behaviour Science 171: 138-145 (2015), which is hereby incorporated by reference in its entirety) and canine orthopedic index (COI) (Brown, D., “The Canine Orthopedic Index. Step 1: Devising the Items,” Veterinary Surgery 43: 232-240 (2014); Brown, D., “The Canine Orthopedic Index. Step 2: Psychometric Testing,” Veterinary Surgery 43: 241-246 (2014); and Brown, D., “The Canine Orthopedic Index. Step 3: Responsiveness Testing,” Veterinary Surgery 43: 247-254 (2014), which are hereby incorporated by reference in their entirety) were completed pretreatment, and on days 14 and 28. Physical examination, body weight, body condition score (BCS) and complete blood count and blood chemistry were evaluated pretreatment and weekly. The animals were dosed orally with capsules daily after an overnight fast.

aged C56BL/6 male mice = experiment: Frailty measurements in aged mice (Frailty Index, FRIGHT Age, AFRAID score); format: in vivo
Experimental: Frailty was measured in aged C56BL/6 male mice, starting at 18 months old (n=50 per group) monthly, over time compared with placebo-treated controls. NaR was administered in the water in low and high dosages of 60 and 400 mg/kg. The animals were group housed 4 per cage and the water was changed weekly. The animals were fed ad libitum and received daily photoperiods of approximately 12 hours of light alternating with 12 hours of darkness.
Three validated scoring methods, Frailty Index (Whitehead et al., “A clinical frailty index in aging mice: Comparisons with frailty index data in humans” J Gerontol A Biol Sci Med Sci. 69:621-632(2014)), FRIGHT Age (Schultz et al., “Age and life expectancy clocks based on machine learning analysis of mouse frailty” Nature Comm. 11(1):4618 (2020)) and AFRAID score (Schultz et al., “Age and life expectancy clocks based on machine learning analysis of mouse frailty” Nature Comm. 11(1):4618 (2020)) were conducted at 25 months of age. […]

[2] = beagles, oral gavage, highest dosage tested
[3] = beagles, oral gavage, single 100-2000 mg/kg and 7-day 100-1000 mg/kg
[4] = Beagle dogs, oral NaR 10, 20, 30 mg/kg/day, post dose
[5] = Beagle dogs, all dosing regimens of Studies #1 and #2
[6] = treated dogs compared with controls, oral capsules daily, 28 days

**Q.** With `O=C([O-])c1ccc[n+]([C@@H]2O[C@H](CO)[C@@H](O)[C@H]2O)c1` [NaR, nicotinic acid riboside] as the molecule, how does the “increase in sorbitol dehydrogenase (SDH) activity” value (purpose-bred beagles; 300 and 1000 mg/kg males, 300 mg/kg females, Day 2 vs pretreatment, low magnitude (e.g., 0 U/L to 2 U/L)) read?
**A.** The value was “non-adverse”.

**Q.** What about the “maximum tolerated dosage, 7-day repeat dosing phase” value (purpose-bred beagles; [2]) of the same molecule?
**A.** Its value is 1000 mg/kg/day.

**Q.** And the “maximum tolerated dosage, single dosing phase” value (purpose-bred beagles; [2])?
**A.** Its value is 2000 mg/kg.

**Q.** And the “Body weights and food consumption” value (purpose-bred beagles; [3])?
**A.** The value was “unaffected by treatment”.

**Q.** And the Survival (purpose-bred beagles; [3])?
**A.** Its Survival is “All animals survived”.

**Q.** What about the “treatment related clinical observations” value (purpose-bred beagles; [3]) of the same molecule?
**A.** The value was “no treatment related clinical observations”.

**Q.** And the “Median Tmax of NAD+ in treated whole blood” value (NAD+; [4])?
**A.** Its value is “less than 2 hours”.

**Q.** What about the “Tmax of NAD+, range of values” (NAD+; [4]) of the same molecule?
**A.** The value was 0 to 2 h.

**Q.** And the “NAD+ levels after oral capsule administration” value (NAD+; Beagle dogs, oral capsule, 10-30 mg/kg/day, 7 days)?
**A.** Its value is “measurable increases”.

**Q.** What about the “Mean Cmax of NAD+, change between Day 1 and Day 7” value (NAD+; all dose groups (10, 20, 30 mg/kg/day)) of the same molecule?
**A.** Its value is “accumulation; also recorded: increase”.

**Q.** What about the “NAD+ Cmax ratio between Day 7 and Day 1, individual animals” value (NAD+; highest dose group (30 mg/kg/day) compared to the others) of the same molecule?
**A.** Its value is “clear increase”.

**Q.** What about the “NAD+ AUC0-24 ratio between Day 7 and Day 1, individual animals” value (NAD+; mid dose group (20 mg/kg/day) compared to the other two groups) of the same molecule?
**A.** The value was “higher value”.

**Q.** And the “Bioavailability (conclusion from NAD+ bioanalysis)” value (NAD+; oral capsule, Beagle dogs)?
**A.** Its value is “bioavailable”.

**Q.** And the “median AUC0-24 of whole blood NAD” value (NAD; [5])?
**A.** The value was 133,000 ng·h/mL.

**Q.** What about the “median Cmax of whole blood NAD” value (NAD; [5]) of the same molecule?
**A.** Its value is 6990 ng/mL.

**Q.** And the “NAD concentration from Day 7 to Day 28” value (NAD; NaR only dosing, 20 mg/kg)?
**A.** The value was “decrease”.

**Q.** What about the “NAD concentration from Day 1 to Day 7” value (NAD; NaR only dosing, all dose levels) of the same molecule?
**A.** Its value is “increase”.

**Q.** And the “AUC and NAD concentrations, NaR only dose levels compared” value (NAD; NaR only, dose of 20 mg/kg)?
**A.** The value was “highest AUC and NAD concentrations”.

**Q.** And the “test article-related effects on mortality or moribundity, clinical observations, body weight, food consumption; tolerability” value (male Beagle dogs)?
**A.** Its value is “no test article-related effects; also recorded: well tolerated”.

**Q.** And the adverse clinical observations ([1]; oral capsules daily, 28 days)?
**A.** The adverse clinical observations was “No adverse clinical observations”.

**Q.** And the “blood chemistry and hematology results” value ([1]; oral capsules daily, 28 days)?
**A.** The value was “remained within the reference ranges”.

**Q.** What about the “canine cognitive dysfunction rating (CCDR) and canine orthopedic index (COI)” value ([1]; pretreatment, days 14 and 28) of the same molecule?
**A.** Its value is “No changes”.

**Q.** What about the “movement when resting (sleep), actigraphy” value [1, 6] of the same molecule?
**A.** Its value is “less movement when resting”.

**Q.** And the “overall activity (frequency and intensity), diurnal rhythm, actigraphy” value [1, 6]?
**A.** The value was “increase in overall activity”.

**Q.** And the “Frailty vs controls, both treatment groups (60 and 400 mg/kg)” value (aged C56BL/6 male mice; in two of the three methods)?
**A.** Its value is “significantly different”.

**Q.** And the “Frailty vs controls by all three methods (Frailty Index, FRIGHT Age, AFRAID score)” value (aged C56BL/6 male mice; low dose 60 mg/kg in the water, end of the study, p<0.05)?
**A.** Its value is “significantly less frail”.

**Q.** Which results are given for `O=c1c(O)c(-c2ccc(O)c(O)c2)oc2cc(O)ccc12` [fisetin, 3,3′,4′,7-tetrahydroxyflavone]?
**A.** NAD concentration at Day 28 (NAD; fisetin only dosing): returned to baseline; NAD concentration at days 7, 14 and 21 (NAD; fisetin only dosing): decreased; whole blood NAD concentration (NAD; fisetin only dosing, 20 mg/kg): below 7000 ng/mL
